From PubChem BioAssay (NCI) come the findings set out here.

Among the test systems are M14 melanoma; DU-145 prostate; MOLT-4 leukemia; EKVX NSCLC; COLO 205 colon; SNB-75 CNS; HS 578T breast; SK-MEL-5 melanoma; CCRF-CEM leukemia; UACC-62 melanoma.
Common to all, as to test: growth of human tumour cells (NCI), 48 h

Where “and” joins values, the source holds several entries; their conditions need not be identical. Equal values may be shown once.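 Step 1: Grow cells in 96-well plates. Step 2: Expose to compound for 48 hours at 5 concentrations. Step 3: Interpolate endpoints linearly; if unreached, use highest concentration. GI50 marks 50% less growth. The concentration for full growth arrest is given as TGI.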

For `C/C(=N/O)c1ccc2c(c1)/C(=N/O)c1ccccc1-2`, the GI50 with M14 melanoma was 21.9 µM; with DU-145 prostate it was 26.4 µM; in the experiment with MOLT-4 leukemia it was 20.2 µM; in the experiment with EKVX NSCLC, 21.2 µM; with COLO 205 colon, 18.1 µM; in the experiment with SNB-75 CNS it was 17.7 µM. In addition, the GI50 is 29.4 µM in the experiment on HS 578T breast, 17 µM in the experiment with SK-MEL-5 melanoma, 25.4 µM with CCRF-CEM leukemia and 18.3 µM in the experiment on UACC-62 melanoma. Besides, the TGI with M14 melanoma is 40.6 µM; in the experiment on DU-145 prostate it was 71 µM; in the experiment on MOLT-4 leukemia it was 49.4 µM; with EKVX NSCLC, 66.1 µM; in the experiment with COLO 205 colon, 35.6 µM; in the experiment with SNB-75 CNS it was 44.2 µM. Besides, the TGI in the experiment with HS 578T breast was determined as 99.2 µM; with SK-MEL-5 melanoma it was 31.2 µM; with CCRF-CEM leukemia, 62.6 µM; with UACC-62 melanoma it was 37.5 µM.
With `CCN(CC)CCC(CNc1ccnc2cc(Cl)ccc12)c1ccccc1` (stereo not given), the GI50 in the experiment on M14 melanoma was 1.71 µM; in the experiment with DU-145 prostate, 32.9 µM; in the experiment on MOLT-4 leukemia, 4.66 µM; in the experiment on EKVX NSCLC, 28.5 µM; in the experiment on COLO 205 colon it was 1.45 µM; in the experiment on SNB-75 CNS it was 2.61 µM. In addition, the GI50 in the experiment with HS 578T breast was 11.5 µM; with SK-MEL-5 melanoma, 1.69 µM; in the experiment with CCRF-CEM leukemia, 4.02 µM; in the experiment on UACC-62 melanoma it was 2.04 µM. Further, the TGI in the experiment with M14 melanoma was 3.19 µM; in the experiment with DU-145 prostate it was above 100 µM; in the experiment with MOLT-4 leukemia, 58.2 µM; with EKVX NSCLC, above 100 µM; in the experiment on COLO 205 colon, 3.33 µM; in the experiment on SNB-75 CNS it was 9.82 µM. Also, the TGI in the experiment on HS 578T breast stood at 43 µM; in the experiment on SK-MEL-5 melanoma it was 3.07 µM; in the experiment with CCRF-CEM leukemia, 36.5 µM; in the experiment on UACC-62 melanoma it was 5.05 µM.
For the compound `CC(C)(C)NC(=O)[C@H]1CC[C@H]2[C@@H]3CC[C@H]4NC(=O)C=C[C@]4(C)[C@H]3CC[C@]12C`, the GI50 in the experiment on M14 melanoma is above 100 µM; with DU-145 prostate it was above 100 µM; in the experiment with MOLT-4 leukemia it was 66 µM and > 100 µM; with EKVX NSCLC, 70.1 µM and > 100 µM; in the experiment with COLO 205 colon it was above 100 µM; in the experiment with SNB-75 CNS it was above 100 µM. The GI50 with HS 578T breast was above 100 µM; in the experiment with SK-MEL-5 melanoma, 43.1 µM and > 100 µM; with CCRF-CEM leukemia, 84.2 µM and > 100 µM; in the experiment with UACC-62 melanoma, above 100 µM. In addition, the TGI with M14 melanoma, in the experiment with DU-145 prostate, in the experiment on MOLT-4 leukemia, in the experiment with EKVX NSCLC, in the experiment with COLO 205 colon and with SNB-75 CNS was above 100 µM each time. Besides, the TGI with HS 578T breast, in the experiment on SK-MEL-5 melanoma, in the experiment on CCRF-CEM leukemia and in the experiment on UACC-62 melanoma was above 100 µM in each case.
Regarding `COc1cccc2nc3ccccc3nc12`, the TGI in the experiment on M14 melanoma, in the experiment on DU-145 prostate, in the experiment with MOLT-4 leukemia, in the experiment with EKVX NSCLC, in the experiment on COLO 205 colon and with SNB-75 CNS was above 100 µM in each case. For the same compound, the TGI in the experiment on HS 578T breast, in the experiment with SK-MEL-5 melanoma, in the experiment with CCRF-CEM leukemia and with UACC-62 melanoma was above 100 µM each time.
As to `CN1CCN(c2ccc(NC(=O)c3cncnc3Nc3ccc(OCc4cccc(F)c4)c(Cl)c3)cc2)CC1`, the GI50 in the experiment with M14 melanoma is 0.895 µM; in the experiment with DU-145 prostate, 4.9 µM; in the experiment with MOLT-4 leukemia, 0.907 µM; with EKVX NSCLC, 10.9 µM; in the experiment on COLO 205 colon it was 0.799 µM; in the experiment on SNB-75 CNS, 5.77 µM. The GI50 in the experiment on HS 578T breast is 1.99 µM; in the experiment on SK-MEL-5 melanoma it was 1.55 µM; with CCRF-CEM leukemia, 1.27 µM; in the experiment on UACC-62 melanoma, 0.914 µM. Moreover, the TGI in the experiment with M14 melanoma was 1.71 µM; in the experiment on DU-145 prostate, above 50 µM; with MOLT-4 leukemia it was 2.28 µM; in the experiment with EKVX NSCLC, above 50 µM; in the experiment with COLO 205 colon, 1.54 µM; in the experiment on SNB-75 CNS it was 18.8 µM. The TGI with HS 578T breast amounted to 11.6 µM; with SK-MEL-5 melanoma, 5.2 µM; with CCRF-CEM leukemia, 4.23 µM; in the experiment on UACC-62 melanoma, 1.74 µM.
As for `COc1cc(/C=C/C(=O)/C=C/c2cc3ccc(Cl)cc3n(Cc3ccccc3)c2=O)ccc1O`, the GI50 was 1.83 µM in the experiment on M14 melanoma; 1.87 µM in the experiment on DU-145 prostate; 1.89 µM in the experiment with MOLT-4 leukemia; 2.11 µM with EKVX NSCLC; 1.97 µM in the experiment on COLO 205 colon; 2.52 µM in the experiment on SNB-75 CNS. Besides, the GI50 is 3.79 µM in the experiment with HS 578T breast, 1.69 µM with SK-MEL-5 melanoma, 1.4 µM in the experiment with CCRF-CEM leukemia and 1.29 µM in the experiment on UACC-62 melanoma. Moreover, the TGI with M14 melanoma was 4.67 µM; with DU-145 prostate, 5.47 µM; with MOLT-4 leukemia, above 100 µM; in the experiment with EKVX NSCLC, 4.67 µM; in the experiment with COLO 205 colon, 6.25 µM; in the experiment with SNB-75 CNS it was 7.42 µM. For the same compound, the TGI with HS 578T breast was 62 µM; in the experiment on SK-MEL-5 melanoma, 3.17 µM; with CCRF-CEM leukemia, above 100 µM; with UACC-62 melanoma, 3.71 µM.
In the case of `ClCc1ccc(Cn2cnc3c(Cl)ncnc32)cc1`, the GI50 was 9.84 µM in the experiment with M14 melanoma; 7.3 µM with DU-145 prostate; 11.8 µM in the experiment on MOLT-4 leukemia; 9.68 µM with EKVX NSCLC; 13.7 µM with COLO 205 colon; above 42 µM with SNB-75 CNS. In addition, the GI50 in the experiment with HS 578T breast is 13.6 µM; in the experiment on SK-MEL-5 melanoma it was 11.7 µM; with CCRF-CEM leukemia, 4.64 µM; in the experiment with UACC-62 melanoma, 9.76 µM. In addition, the TGI in the experiment with M14 melanoma was 19 µM; in the experiment with DU-145 prostate it was 25.5 µM; with MOLT-4 leukemia it was above 56.2 µM; with EKVX NSCLC it was 19.5 µM; in the experiment with COLO 205 colon, above 100 µM; in the experiment on SNB-75 CNS it was above 67 µM. Moreover, the TGI was 29.1 µM with HS 578T breast, 35.9 µM in the experiment on SK-MEL-5 melanoma, above 48.8 µM in the experiment on CCRF-CEM leukemia and 19.5 µM in the experiment on UACC-62 melanoma.
For `O=C(/C=C/C(Cl)(Cl)Cl)Nc1ccc(Cl)cc1`, the TGI in the experiment with M14 melanoma stood at 11.7 µM; in the experiment on DU-145 prostate, 30.6 µM; in the experiment on MOLT-4 leukemia it was 3.28 µM; in the experiment with EKVX NSCLC, 13.7 µM; with COLO 205 colon it was 5.16 µM; with SNB-75 CNS, 11.1 µM. Moreover, the TGI was 54.3 µM with HS 578T breast, 23.5 µM in the experiment on SK-MEL-5 melanoma, 3.97 µM in the experiment with CCRF-CEM leukemia and 21.2 µM in the experiment on UACC-62 melanoma.
In the case of `CCOC(=O)c1c(NC(=O)c2ccccc2)sc2c3c(ccc12)OCN(C)C3`, the GI50 in the experiment with M14 melanoma is 1.74 µM; with DU-145 prostate it was 1.67 µM; with MOLT-4 leukemia it was 2.09 µM; in the experiment on EKVX NSCLC it was 1.65 µM; in the experiment on COLO 205 colon it was 1.77 µM; in the experiment with SNB-75 CNS, 1.4 µM. Also, the GI50 in the experiment with HS 578T breast was 1.9 µM; in the experiment with SK-MEL-5 melanoma, 1.74 µM; in the experiment on CCRF-CEM leukemia it was 1.97 µM; in the experiment with UACC-62 melanoma, 1.7 µM. Also, the TGI in the experiment on M14 melanoma was 3.29 µM; in the experiment with DU-145 prostate, 3.12 µM; in the experiment with MOLT-4 leukemia, 5.19 µM; in the experiment with EKVX NSCLC, 3.08 µM; in the experiment on COLO 205 colon it was 3.7 µM; with SNB-75 CNS, 2.74 µM. The TGI amounted to 4.16 µM in the experiment with HS 578T breast, 3.14 µM in the experiment on SK-MEL-5 melanoma, 5.75 µM in the experiment with CCRF-CEM leukemia and 3.27 µM in the experiment with UACC-62 melanoma.
With `COc1ccc(C(=O)O[C@H]2[C@H](O[C@H]3[C@@H](O)COC(O[C@H]4C[C@H]5[C@@H]6CC=C7C[C@@H](O)CC[C@]7(C)[C@H]6CC[C@]5(C)[C@H]4[C@H](C)C(=O)CCC(C)C)[C@@H]3OC(C)=O)OC[C@@H](O)[C@@H]2O)c(C)c1` (stereo not given in full), the GI50 in the experiment with M14 melanoma was below 0.01 µM; with DU-145 prostate it was 1.26 µM; in the experiment on MOLT-4 leukemia it was below 0.01 µM; in the experiment with EKVX NSCLC it was 1.26 µM; in the experiment with COLO 205 colon, 0.0178 µM; in the experiment with SNB-75 CNS, below 0.01 µM. Further, the GI50 in the experiment with HS 578T breast, with SK-MEL-5 melanoma, with CCRF-CEM leukemia and in the experiment with UACC-62 melanoma was below 0.01 µM throughout. The TGI with M14 melanoma was 0.0102 µM; in the experiment on DU-145 prostate, 36.4 µM; in the experiment with MOLT-4 leukemia, 11.2 µM; in the experiment on EKVX NSCLC, 26.9 µM; with COLO 205 colon it was 0.133 µM; in the experiment with SNB-75 CNS, 13.2 µM. In addition, the TGI in the experiment with HS 578T breast is 0.0282 µM; in the experiment with SK-MEL-5 melanoma, 0.0141 µM; with CCRF-CEM leukemia, 0.13 µM; with UACC-62 melanoma, below 0.01 µM.
As for `C(=Nc1cnc2ccccc2c1)c1ccc2ccccc2n1`, the TGI with M14 melanoma, in the experiment with DU-145 prostate, in the experiment on MOLT-4 leukemia, with EKVX NSCLC, with COLO 205 colon and in the experiment with SNB-75 CNS was above 100 µM each time. Further, the TGI in the experiment on HS 578T breast, in the experiment on SK-MEL-5 melanoma, with CCRF-CEM leukemia and in the experiment with UACC-62 melanoma was above 100 µM each time.
